In patent US20050197350A1, “Novel quinoline, tetrahydroquinazoline, and pyrimidine derivatives and methods of treatment related to the use thereof” (TAISHO PHARMACEUTICAL CO., LTD., priority 2003, published 2005):

System: MCH receptors
Test: MCH receptor activity class (method not given)
[1] = MCH receptor activity class 1-3 (percent of control at 10^-7 M or IC50)
[2] = class by percent of control at 10^-7 M or IC50
[3] = MCH receptor, class by percent of control at 10^-7 M or IC50
[4] = class 1-3 by percent of control at 10^-7 M or IC50
[5] = class by percent of control at 10^−7 M or IC50

Row | Compound | class [2] | further results
1 | CN(C)c1cc(N[C@H]2CC[C@@H](NC(=S)NCc3cccc(Cl)c3)CC2)nc2ccccc12 [compound 2292] | – | class [1]: 3 (Class 3 The value of percent of control at 10^−7 M was more than 60% or the value of IC50 was more than 200 nM.)
2 | Cc1cc(CNC[C@H]2CC[C@@H](Nc3nccc(N(C)C)n3)CC2)ccc1O [compound 1315] | 3 (Class 3 The value of percent of control at 10^−7 M was more than 60% or the value of IC50 was more than 200 nM.) | –
3 | Cc1ccc(CNC[C@H]2CC[C@@H](Nc3cc(N(C)C)c4ccccc4n3)CC2)cc1I [compound 1476] | 3 (Class 3 The value of percent of control at 10^−7 M was more than 60% or the value of IC50 was more than 200 nM.) | –
4 | Cc1ccccc1CNC[C@H]1CC[C@@H](Nc2cc(N(C)C)c3ccccc3n2)CC1 [compound 1185] | 3 (Class 3 The value of percent of control at 10^−7 M was more than 60% or the value of IC50 was more than 200 nM.) | –
5 | COc1cc(CN[C@H]2CC[C@@H](Nc3nc4c(c(N(C)C)n3)CCCC4)CC2)cc(OC)c1O [compound 1337] | 2 (Class 2: The value of percent of control at 10^−7 M was from 40% to 60% or the value of IC′50 was from 50 nM to 200 nM.) | –
6 | CCOc1ccc(CNC[C@H]2CC[C@@H](Nc3cc(N(C)C)c4ccccc4n3)CC2)c(OCC)c1 [compound 1170] | 2 (Class 2: The value of percent of control at 10^−7 M was from 40% to 60% or the value of IC′50 was from 50 nM to 200 nM.) | –
7 | CN(C)c1nc(N[C@H]2CC[C@@H](NC(=O)Nc3c(F)cc(Br)cc3F)CC2)nc2c1CCCC2 [compound 1686] | – | class (activity class 1-3: percent of control at 10^-7 M or IC50): 3 (Class 3 The value of percent of control at 10^−7 M was more than 60% or the value of IC50 was more than 200 nM.)
8 | Cc1ccc(C(=O)NC[C@H]2CC[C@@H](Nc3cc(N(C)C)c4ccccc4n3)CC2)cc1 [compound 178] | – | class [3]: 3 (Class 3 The value of percent of control at 10^−7 M was more than 60% or the value of IC50 was more than 200 nM.)
9 | CN(C)c1cc(N[C@H]2CC[C@@H](NC(=O)c3cc(Br)c(Br)o3)CC2)nc2ccccc12 [compound 706] | 1 (Class 1: The value of percent of control at 10^−7 M was less than 40% or the value of IC50 was less than 50 nM.) | –
10 | Cc1onc(-c2ccccc2Cl)c1C(=O)N[C@H]1CC[C@@H](Nc2cc(N(C)C)c3ccccc3n2)CC1 [compound 98] | – | class [3]: 1 (Class 1: The value of percent of control at 10^−7 M was less than 40% or the value of IC50 was less than 50 nM.)
11 | COc1cc(OC)c(CNC[C@H]2CC[C@@H](Nc3nccc(N(C)C)n3)CC2)c(OC)c1 [compound 1282] | 1 (Class 1: The value of percent of control at 10^−7 M was less than 40% or the value of IC50 was less than 50 nM.) | –
12 | Cc1cc(C)cc(NC(=O)N[C@H]2CC[C@@H](Nc3nc4c(c(N(C)C)n3)CCCC4)CC2)c1 [compound 1869] | 3 (Class 3 The value of percent of control at 10^−7 M was more than 60% or the value of IC50 was more than 200 nM.) | –
13 | CN(C)c1ccnc(N[C@H]2CC[C@@H](NC(=O)c3cccc(Oc4ccccc4)c3)CC2)n1 [compound 871] | 2 (Class 2: The value of percent of control at 10^−7 M was from 40% to 60% or the value of IC′50 was from 50 nM to 200 nM.) | –
14 | CN(C)c1nc(N[C@H]2CC[C@@H](NC(=O)c3cccc4ccccc34)CC2)nc2c1CCCC2 [compound 545] | – | class [4]: 3 (Class 3 The value of percent of control at 10^−7 M was more than 60% or the value of IC50 was more than 200 nM.)
15 | Cc1cc(N(C)C)nc(NC[C@H]2CC[C@@H](NC(=O)c3ccc(OC(F)(F)F)cc3)CC2)n1 [compound 2742] | – | class [5]: 3 (Class 3 The value of percent of control at 10^−7 M was more than 60% or the value of IC50 was more than 200 nM.)
16 | CN(C)c1cc(N[C@H]2CC[C@@H](NC(=O)Cc3cccc4ccccc34)CC2)nc2ccccc12 [compound 89] | – | class [3]: 3 (Class 3 The value of percent of control at 10^−7 M was more than 60% or the value of IC50 was more than 200 nM.)
17 | CCc1cccc(CC)c1NC(=O)N[C@H]1CC[C@@H](Nc2nccc(N(C)C)n2)CC1 [compound 2192] | 3 (Class 3 The value of percent of control at 10^−7 M was more than 60% or the value of IC50 was more than 200 nM.) | –
18 | CN(C)c1ccnc(N[C@H]2CC[C@@H](CNCc3ccccc3C#N)CC2)n1 [compound 1268] | 3 (Class 3 The value of percent of control at 10^−7 M was more than 60% or the value of IC50 was more than 200 nM.) | –
19 | CN(C)c1nc(N[C@H]2CC[C@@H](NC(=S)Nc3ccccc3Br)CC2)nc2c1CCCC2 [compound 1963] | – | class [3]: 3 (Class 3 The value of percent of control at 10^−7 M was more than 60% or the value of IC50 was more than 200 nM.)
20 | Cc1cc(N(C)C)nc(N[C@H]2CC[C@@H](CNC(=O)c3ccc(Br)cc3)CC2)n1 [compound 2762] | – | class [5]: 1 (Class 1: The value of percent of control at 10^−7 M was less than 40% or the value of IC50 was less than 50 nM.)
21 | COc1ccc(C(=O)NC[C@H]2CC[C@@H](Nc3ncc(C)c(N(C)C)n3)CC2)cc1 [compound 2693] | – | class [5]: 3 (Class 3 The value of percent of control at 10^−7 M was more than 60% or the value of IC50 was more than 200 nM.)
22 | CN(C)c1cc(N[C@H]2CC[C@@H](CNC(=O)c3ccccc3I)CC2)nc2ccccc12 [compound 222] | 3 (Class 3 The value of percent of control at 10^−7 M was more than 60% or the value of IC50 was more than 200 nM.) | –
23 | (2-{[4-(4-Dimethylamino-5,6,7,8-tetrahydro-quinazolin-2-ylamino)-cyclohexylamino]-methyl}-cyclohexyl)-phenyl-methanol [compound 1492] | 3 (Class 3 The value of percent of control at 10^−7 M was more than 60% or the value of IC50 was more than 200 nM.) | –
24 | Cc1ccc(C(=O)NC[C@H]2CC[C@@H](Nc3nc4c(c(N(C)C)n3)CCCC4)CC2)cc1 [compound 613] | 3 (Class 3 The value of percent of control at 10^−7 M was more than 60% or the value of IC50 was more than 200 nM.) | –
25 | Cc1ccc(NC(=S)N[C@H]2CC[C@@H](Nc3nccc(N(C)C)n3)CC2)c(Br)c1 [compound 2323] | – | class [1]: 3 (Class 3 The value of percent of control at 10^−7 M was more than 60% or the value of IC50 was more than 200 nM.)
26 | Cc1cnc(NC[C@H]2CC[C@@H](NC(=O)c3cc(Cl)cc(Cl)c3)CC2)nc1N(C)C [compound 2728, 3,5-dichloro-N-[cis-4-({[4-(dimethylamino)-5-methylpyrimidin-2-yl]amino}methyl)cyclohexyl]benzamide] | – | class [5]: 2 (Class 2: The value of percent of control at 10^−7 M was from 40% to 60% or the value of IC′50 was from 50 nM to 200 nM.)
27 | 4-({[(cis-4-{[4-(dimethylamino)pyrimidin-2-yl]amino}-cyclohexyl)methyl]amino}methyl)-2,6-dimethoxyphenol [compound 1254] | 1 (Class 1: The value of percent of control at 10^−7 M was less than 40% or the value of IC50 was less than 50 nM.) | –
28 | CN(C)c1cc(N[C@H]2CC[C@@H](CNCCCC#Cc3ccccc3)CC2)nc2ccccc12 [compound 1469] | 3 (Class 3 The value of percent of control at 10^−7 M was more than 60% or the value of IC50 was more than 200 nM.) | –
29 | Cc1ccc(Cl)c(C(=O)NC[C@H]2CC[C@@H](Nc3nccc(N(C)C)n3)CC2)c1F [compound 453] | – | class [4]: 3 (Class 3 The value of percent of control at 10^−7 M was more than 60% or the value of IC50 was more than 200 nM.)
30 | CN(C)c1nc(N[C@H]2CC[C@@H](NC(=O)Nc3cccc(C(F)(F)F)c3F)CC2)nc2c1CCCC2 [compound 1858] | 3 (Class 3 The value of percent of control at 10^−7 M was more than 60% or the value of IC50 was more than 200 nM.) | –
